Experimental data from patent US20250032532A1, “COMBINATION OF OCTAPEPTIDE AND HIGH MOLECULAR WEIGHT HYALURONIC ACID FOR TOPICAL APPLICATION” (Alastin Skincare, Inc., priority 2022, published 2025).

What was measured:
[1] = test system: Hyaluronic Acid Synthase 2 (HAS2); test: RNA-Seq gene expression of HAS2 in keratinocytes; assay type: cell-based, Human; settings: 100 μg/ml, 24 hr
Method: (§1) Cell Lines. Human adult dermal fibroblast and keratinocyte cell lines were treated with 11 different compound treatments (plus DMSO control as treatment #12). Primary cells were plated in cell specific media at 5K or 10K cells per cm^2. Cells were plated in 48 well plates in triplicate, one cell line per plate. Media volume was 500ul per well. Outer two columns of wells were not used. Cells were cultured for 2 days in 37° C. 5% CO2 incubator. After 48 hours all the cell cultures were uniform and appeared healthy, no appreciable number of floating dead cells or evidence of vacuolization of cells that might indicate apoptotic or dying cells.
(§2) Compounds. Stocks of compounds 1 through 8 on the list below were prepared in PBS at 100× the concentration indicated in red type. […] This stock was 100× of final concentration. A 20 mg/ml stock of compound 10 (CBD) was prepared in DMSO. […]
(§3) RNA lysate preparation. […] All samples were shipped frozen on dry ice for RNA extraction, library construction and sequencing to 25 M paired end 100 bp reads per sample.
(§4) RNA-Seq. All the RNA samples were shipped frozen on dry ice for RNA extraction, library construction and sequencing to 25 M paired end 100 bp reads per sample. Differentially expressed genes were identified and pathway enrichment was assessed using the Reactome Pathway.

Hyaluronidase 2 (HYAL2) = test: RNA-Seq gene expression of HYAL2 in keratinocytes; assay type: cell-based, Human; settings: 100 μg/ml, 24 hr
Method: as §1, §2, §3, §4

[2] = test system: Early Growth Response 3 (EGR3); test: RNA-Seq gene expression of EGR3 in keratinocytes; assay type: cell-based, Human; settings: 100 μg/ml, 24 hr
Method: as §1, §2, §3, §4

Human dermal fibroblasts = test: Octapeptide dose-response of high MW HA production (band density); assay type: cell-based; settings: 72 hours
Method: Human dermal fibroblasts were treated with Octapeptide (1× and 10×; corresponding to 10 μg/ml and 100 μg/ml respectively) or left untreated. After 72 hours, the supernatant was collected, concentrated, run on an SDS-PAGE, stained and imaged. The experiment was conducted 4 times and the density of the bands from each supernatant were quantified (arbitrary units (AU)) using ImageJ. The data was graphed in FIG. 6 and represents the mean±standard deviation of the band densities for each treatment condition.

[3] = test system: Hyaluronic Acid Synthase 2 (HAS2); test: RNA-Seq gene expression of HAS2 in dermal fibroblasts; assay type: cell-based, Human; settings: 100 μg/ml, 24 hr
Method: as §1, §2, §3, §4

Substance | fold-change in HAS2 gene expression relative to non-treated cells [1] | fold-change in HYAL2 gene expression relative to non-treated cells (Hyaluronidase 2 (HYAL2)) | upregulation of EGR3 gene expression relative to non-treated cells [2] | production of high MW HA in dermal fibroblasts (Human dermal fibroblasts; 1× and 10× (10 μg/ml and 100 μg/ml)) | density of high MW HA band (ImageJ) (Human dermal fibroblasts; 10× Octapeptide (100 μg/ml), 4 experiments) | fold-change in HAS2 gene expression relative to non-treated cells [3]
Hexapeptide-11 | excellent upregulation | potent downregulation | about seven | – | – | –
Octapeptide: proprietary peptide designed by Alastin; in some embodiments octapeptide-45, amino acid sequence GPHGVREA (Gly-Pro-His-Gly-Val-Arg-Glu-Ala) | – | modest downregulation | – | dose-responsive increase | vast increase in signal density | excellent stimulation
